Measurements taken from patent US8623387B2, “External preparation composition comprising fatty acid-based ionic liquid as active ingredient” (Medrx Co., Ltd., priority 2007, dated 2014).
Counter-ions that a name gives are not always drawn. Like-named read-outs stand apart in the source and are kept apart here.

Assays:
[1] = cited from earlier work
[2] = Transdermal absorbability evaluation test using Franz-cells (rat skin permeation); conditions: for Rat skin permeability after 6 hours: tramadol salt liquid preparation free from ionic liquid, percentage of amount added onto the rat skin
[3] = pKa of acidic and basic substances present in the compositions; type: physicochemical; conditions: assumed to be equal to that of an analogue (footnote *1)
[4] = carboxylic acids and organic amine compounds used for the ionic liquids

Compound	pKa [1]	further results
CCCCCCCCCCCCCC(=O)O [Myristic acid]	ca.4.9	–
CC(=O)CCC(=O)O [Levulinic acid]	4.5	–
CCCCCCCC/C=C\CCCCCCCC(=O)O [oleic acid]	approximately 4.9	–
Butyrate	–	Rat skin permeability after 6 hours [2]: 23.8%
CCCCCCCCN [n-Octylamine]	–	pKa [3]: 10.7
CCc1cccc2c3c([nH]c12)C(CC)(CC(=O)O)OCC3 (centres unmarked) [Etodolac, reference compound]	4.5	–
CC(C(=O)O)c1ccc(-c2ccccc2)c(F)c1 (centres unmarked) [Flurbiprofen, reference compound]	3.78	–
CCc1ccc(C(=O)C(C)CN2CCCCC2)cc1 (centres unmarked) [Eperisone, reference compound]	8.91	–
CC(C(=O)O)c1ccc(CC2CCCC2=O)cc1 (centres unmarked) [Loxoprofen, reference compound]	4.20	–
NC1CCCCC1 [Cyclohexylamine]	10.63	–
CCCCCCCCCCCC(=O)O [Lauric acid]	–	pKa [1, 4]: (pKa ≈ 4.9)
COc1ccc2c(c1)c(CC(=O)O)c(C)n2C(=O)c1ccc(Cl)cc1 [Indomethacin, reference compound]	–	Transdermal absorbability ([2]; indomethacin, cumulative amount permeated 6 hours after start of test, rat skin, Franz-cells): approximately 3 μg/cm^2
CCCCC(CC)C(=O)O.COc1cccc(C2(O)CCCCC2CN(C)C)c1 (centres unmarked) [2-ethylhexanoate, 2-ethylhexanoate of Tramadol]	–	Rat skin permeability after 6 hours [2]: 12.1%
CCCCCCN [n-Hexylamine]	10.85	–
Lactate	–	Rat skin permeability after 6 hours [2]: 0.2%
Cc1ccc(C(=O)C(C)CN2CCCCC2)cc1 (centres unmarked) [Tolperisone, reference compound]	–	pKa [3]: ~8.9
OCCN1CCCC1 [N-hydroxyethyl-pyrrolidine, N-hydroxyethylpyrrolidine]	10.32	–
COc1cccc(C2(O)CCCCC2CN(C)C)c1 (centres unmarked) [Hydrochloride, tramadol hydrochloride, reference compound]	–	Rat skin permeability after 6 hours [2]: 4.5%
CC(C)CCCCCCCCCCCCCCC(=O)O [Isostearic acid]	approximately 4.9	pKa [1, 4]: (pKa ≈ 4.9)
